Data as given in publication PMC12040169 (PLOS Biology, 2025).

Experiment: in vitro
Details: human, hela cells

SMILES	viability at 28.5 h, 10 µM (% viability) [%]	viability at 28.5 h, 10 µM [%]
COCCNC(=O)C1CCN(c2nc3c(-c4ccccc4F)csc3c(=O)[nH]2)CC1 [CBK215434]	92.6	
CN(C)CCNC(=O)C1CCN(c2nc3c(-c4ccccc4F)csc3c(=O)[nH]2)CC1 [CBK215437]	85.1	
COc1ccc(CNC(=O)C2CCCN(c3nc4c(-c5ccccc5)csc4c(=O)[nH]3)C2)cc1 (centres unmarked) [CBK215464]	95.2	
NC(=O)CNC(=O)C1CCCN(c2nc3c(-c4ccccc4)csc3c(=O)[nH]2)C1 (centres unmarked) [CBK215487]	112	
O=C(NCc1cccnc1)C1CCCN(c2nc3c(-c4ccccc4)csc3c(=O)[nH]2)C1 (centres unmarked) [CBK215492]	112	
O=C(NCCc1cccnc1)C1CCCN(c2nc3c(-c4ccccc4)csc3c(=O)[nH]2)C1 (centres unmarked) [CBK215495]	88.7	
COc1ccc(CNC(=O)C2CCCN(c3nc4c(-c5ccc(C)cc5)csc4c(=O)[nH]3)C2)cc1 (centres unmarked) [CBK215530]	112	
Cc1cccc(-c2csc3c(=O)[nH]c(N4CCC(C(=O)NCc5ccncc5)CC4)nc23)c1 [CBK215625]	106	
COCCCNC(=O)C1CCN(c2nc3c(-c4cccc(C)c4)csc3c(=O)[nH]2)CC1 [CBK215630]	96.6	
Cc1cccc(-c2csc3c(=O)[nH]c(N4CCC(C(=O)NCCN(C)C)CC4)nc23)c1 [CBK215633]	95.8	
Cc1cccc(-c2csc3c(=O)[nH]c(N4CCC(C(=O)NCCN5CCOCC5)CC4)nc23)c1 [CBK215640]	105	
Cc1cccc(-c2csc3c(=O)[nH]c(N4CCC(C(=O)N5CCOCC5)CC4)nc23)c1 [CBK215644]	89.7	
CCCC(N)CCCCCC(=O)O (centres unmarked) [CBK217078]	91.8	
CC(C)CC(NS(=O)(=O)c1cccc2nsnc12)C(=O)O (centres unmarked) [CBK217288]	94.2	
Cc1ccc(S(=O)(=O)NC(Cc2ccccc2)C(=O)O)cc1 (centres unmarked) [CBK217645]	102	
Cc1ccc(OCC(=O)NC(Cc2ccccc2)C(=O)O)cc1 (centres unmarked) [CBK217681]	102	
O=C(NC(Cc1c[nH]c2ccccc12)C(=O)O)c1ccco1 (centres unmarked) [CBK217706]	92.5	
N#CC1=C(N)n2c(s/c(=C\c3ccc(O)cc3)c2=O)=C(C#N)C1c1ccc(O)cc1 (centres unmarked) [CBK217780]	103	
O=C(O)C(Cc1cnc[nH]1)N1C(=O)c2ccccc2C1=O (centres unmarked) [CBK217815]	110	
O=C(O)CSc1n[nH]c(=O)[nH]c1=O [CBK217819]	94.8	
O=c1c(Oc2ccccc2Br)c(C(F)(F)F)oc2c(CN3CCCC3)c(O)ccc12 [CBK217827]	96	
O=c1c2ccccc2nc(CSc2[nH]cnc3ncnc2-3)n1-c1ccc(Cl)c(Cl)c1 [CBK217854]	93.9	
O=C(O)C1CCCN1S(=O)(=O)c1ccc(Cl)c(Cl)c1 (centres unmarked) [CBK217856]	99.1	

SMILES	viability at 28.5 h, 10 µM (% viability) [%]	viability at 28.5 h, 10 µM [%]
COC(=O)CCNc1n[nH]c(=O)[nH]c1=O [CBK217927]	90.4	
CC1(C(=O)O)NC(c2ccccc2O)C2C(=O)N(Cc3ccccc3)C(=O)C21 (centres unmarked) [CBK218007]	90.6	
CC1(C)CC(CCNC(=O)CCC(=O)O)(c2ccccc2)CCO1 (centres unmarked) [CBK218198]	85.7	
Cn1c(=O)c2c(nc(N3CCOCC3)n2CCC/N=C2\CCCCN2)n(C)c1=O [CBK218356]	105	
CSCCC(C(=O)O)N1C(=O)c2ccccc2C1=O (centres unmarked) [CBK218448]	102	
O=[N+]([O-])c1ccc(CN2CCN(Cc3c[nH]c4ccccc34)CC2)cc1 [CBK218620]	92.3	
O=[N+]([O-])c1cc(CN2CCN(c3ccccc3)CC2)c(O)c2ncccc12 [CBK218696]	99.6	
O=c1oc2ccccc2c(NCCN2CCCCC2)c1[N+](=O)[O-] [CBK218805]	92	
O=c1[nH]cnc2c1nc(S)n2C1OC(CO)C(O)C1O (centres unmarked) [CBK218834]	96.4	
Cc1cc(=O)n2c3c(cc(S(=O)(=O)NC4CC4)cc13)CC2 [CBK218959]	95.9	
N#CC1=C(N)Oc2cc(O)ccc2C1c1ccccc1 (centres unmarked) [CBK219303]	90.3	
O=c1c(Cc2ccccc2)c(O)c2ccccc2n1Cc1ccccc1 [CBK219368]	85.8	
CCC(=O)Nc1ccccc1C(=O)C(=O)O [CBK219398]	120	
CCCCc1c(O)c2ccccc2n(Cc2ccccc2)c1=O [CBK219416]	106	
Cc1ccc2nc(NCc3ccco3)c(/C=N/Cc3ccco3)c(=O)n2c1 [CBK220353]	80.4	
O=C(CN1C(=O)c2ccccc2C1=O)NCC1COc2ccccc2O1 (centres unmarked) [CBK222526]	96.8	
NNC(=O)CSc1nnc(-c2ccccc2)n1-c1ccccc1 [CBK223486]	92.5	
S=c1nc(-c2ccco2)n(Cc2ccccc2)c(=S)n1/C(=N/Cc1ccccc1)c1ccco1 [CBK223550]	108	
O=C1CC(=O)N(Cc2ccccc2)C(=O)N1 [CBK224014]	91.7	
O=C(O)CSc1nc2ccccc2[nH]1 [CBK225127]	95.3	
COc1cc(NC(=O)c2ccccc2)c(C(=O)O)cc1OC [CBK227754]	89.9	
N/C(CC(=O)Nc1cc(Cl)cc(Cl)c1)=N\O [CBK228614]	105	
O=C(O)C1C(C(=O)O)C1C(=O)O (centres unmarked) [CBK230432]	94.9	

SMILES	viability at 28.5 h, 10 µM (% viability) [%]	viability at 28.5 h, 10 µM [%]
O=S(=O)(Oc1ccccc1)c1ccc2c(c1)Cc1cc(S(=O)(=O)Oc3ccccc3)ccc1-2 [CBK231928]	88.5	
O=S(=O)(NCCSCc1ccco1)c1ccc(Cl)cc1 [CBK232206]	85.6	
O=C(O)COCC(=O)N1CCN(C(c2ccccc2)c2ccccc2)CC1 [CBK232579]	84.3	
Cc1nc(C)c(C(=O)C2=C(O)C(=O)N(CCCN3CCOCC3)C2c2ccncc2)s1 (centres unmarked) [CBK235187]	97.3	
COc1ccc(NCc2cc(=O)oc3cc4c(cc23)CCC4)cn1 [CBK235362]	88	
Cn1c(=O)c2c(nc(CN3CCC(Cc4ccccc4)CC3)n2CC(=O)c2ccccc2)n(C)c1=O [CBK236846]	88	
Cc1nc(CN2CCN(c3ccc4nnc(C(F)(F)F)n4n3)CC2)cs1 [CBK239750]	95.1	
N#Cc1nc(-c2ccco2)oc1N1CCN(C(=O)c2cc3c(s2)CCCCC3)CC1 [CBK240763]	93.9	
O=C(NC1CCN(c2ncccn2)CC1)c1ccc[nH]c1=S [CBK241695]	83.9	
CCS(=O)(=O)N1CCC(NC(=O)NC(C)c2ccccc2Cl)CC1 (centres unmarked) [CBK242304]	95.3	
COc1cc(Br)c(OC)c(C(=O)N(C)Cc2cnn(C)c2)c1 [CBK244011]	102	
CC(=O)Nc1nc(C(=O)N2CCOC(c3ccc(F)cc3)C2)cs1 (centres unmarked) [CBK244238]	99.3	
Cc1ccc(C(=O)NCCNc2cnccn2)cc1S(C)(=O)=O [CBK246280]	103	
Cc1c(Cl)cccc1NC(=O)c1cnc2sccn2c1=O [CBK246518]	115	
Cc1cc(Br)ccc1NC(=O)c1cnc2sccn2c1=O [CBK246520]	112	
CCc1noc(C)c1C(=O)NC(C)c1cc2ccccc2o1 (centres unmarked) [CBK247065]	87.1	
CCOc1cc2c(cc1NC(=O)CN(c1cccc(Cl)c1)S(C)(=O)=O)OC(C)C2 (centres unmarked) [CBK248179]	94.6	
Cc1nn(CC(C)C)c(Cl)c1C(=O)Nc1nc2ccc(F)cc2s1 [CBK252188]	90.4	
O=C(Cn1cnc2ccc(F)cc2c1=O)N1CCOC2CCCCC21 (centres unmarked) [CBK253316]	80.5	
CN(CC(=O)NCc1ccco1)C1CCCCCC1 [CBK254305]	97.3	
CCOc1ncccc1NC(=O)Cc1cccc(OC)c1 [CBK256406]	94.8	
Cc1cc(NC(=O)NC2CCSc3ccccc32)no1 (centres unmarked) [CBK259296]	74.8	
N#Cc1cccc(C(=O)NCCc2nnc3n2CCCCC3)c1 [CBK259813]	105	

SMILES	viability at 28.5 h, 10 µM (% viability) [%]	viability at 28.5 h, 10 µM [%]
Cc1[nH]c2ccccc2c1C(=O)CCC(=O)O [CBK260871]	95.5	
Oc1n[nH]c2c1CCC2 [CBK260873]	95.4	
Cc1n[nH]c(NN)c1Cl [CBK260876C]	89.5	
O=C(CC(c1ccccc1)c1c(O)c2ccccc2oc1=O)c1ccc(-c2ccc(Br)cc2)cc1 (centres unmarked) [CBK260877]		91.8
CC(=O)O[B-]1(OC(C)=O)N(c2ccc(S(N)(=O)=O)cc2)N=C(c2ccccc2)N=[N+]1c1ccccc1 [CBK260879]	87.1	
C(=N\c1cccc2c(/N=C/c3c[nH]c4ccccc34)cccc12)/c1c[nH]c2ccccc12 [CBK260887]	95.8	
Oc1ccc2[nH]cc(CCNC(c3ccccc3)(c3ccccc3)c3ccccc3)c2c1 [CBK260891]	103	
O=C(CSS(=O)(=O)O)NCc1ccccc1 [CBK260897N]	105	
COc1ccc2sc(C)[n+](CCC(=O)O)c2c1 [CBK260899B]	83.5	
O=S(=O)(O)CCCSc1nc2ccccc2s1 [CBK260900N]	100	
O=C(O)CNc1ccccc1C(=O)O [CBK260902]	120	
O=C(O)C1CSC(c2cccnc2)N1 (centres unmarked) [CBK260910]	111	
O=C(Nc1cccc2c(NC(=O)C3CC3c3ccccc3)cccc12)C1CC1c1ccccc1 (centres unmarked) [CBK260911]	99.1	
O=C(O)c1ccc(NC(=O)c2nccnc2C(=O)O)cc1 [CBK260916]	97.7	
CCOC(=O)c1c(NC(=O)Cn2cnc3ccccc32)sc2c1CCCC2 [CBK260917]	106	
O=[N+]([O-])c1ccc(O)c(/C=N/Nc2nc(Nc3ccc(Cl)cc3)nc(N3CCOCC3)n2)c1 [CBK260918]	90.2	
C/C(=N/Nc1ccc([N+](=O)[O-])cc1[N+](=O)[O-])C1CC1 [CBK260921]	104	
O=C1/C(=N\Nc2ccc([N+](=O)[O-])cc2[N+](=O)[O-])c2ccccc2N1CN1CCCCC1 [CBK260926]	94.4	
O=C1/C(=N\Nc2ccc([N+](=O)[O-])cc2[N+](=O)[O-])c2cc(Br)ccc2N1CN1CCCCC1 [CBK260927]	110	
OCCOc1ccccc1OCCO [CBK260930]	93.6	
